Measurements published in patent US5932568A, “6-methoxy-1H-benzotriazole-5-carboxamide derivatives and pharmaceutical compositions containing them” (priority 1994, dated 1999).
Structures can show the parent of a compound that is named as a salt.

Legend:
dopamine D2 receptor = conditions: cited from earlier work
[1] = tested on: gastrointestinal motility; experiment: Gastrointestinal motility improving activity (overall statement); conditions: in vivo
in vivo = conditions: mouse, oral, mice, 7 days observation
exploratory activity = experiment: Inhibitory effect on exploratory activity; type: in vivo, male mice (Std-ddy strain); conditions: oral, 2 h before test; 3 min counting; Probit
Text: A group of 5 male mice (Std-ddy strain, 20-25 g) was used. Two hours after oral administration of the test compounds in the form of 0.5% tragacanth solution or suspension, mice were placed individually in a test box (23×35×30 cm) on Animex activity meter (Farad Co.). Immediately thereafter, activity counting was started and lasted for three minutes. The mean counts of the compound-treated group were compared with those of the corresponding control (non-dosed) group, and the percent inhibition was calculated and the 50% inhibitory dose (ID50) was obtained according to the method of Probit.

[2] = tested on: gastric emptying delayed by morphine; experiment: Effect on gastric emptying delayed by morphine; type: in vivo, Male Wistar rats; design: key to Effect on gastric emptying delayed by morphine: +: slightly to moderately improved; ++: markedly improved; ±: no improvement; conditions: for Effect on gastric emptying delayed by morphine: morphine 3 mg/kg s.c.
Procedure: (§1) The test was carried out according to the method of Scarpignato et al. [c f. Arch. int. Pharmacodyn., 246, 286-294 (1980)]. Male Wistar rats, weighing 130-150 g, were fasted for 18 hours before experimentation, and 1.5 ml of a test meal (phenol red 0.05% in a 1.5% aqueous methylcellulose solution) was orally given. Fifteen minutes after administration of the meal the stomach was removed and the amount of phenol red remaining in the stomach was measured. The test compounds, 10, 30 or 100 mg/kg, each dissolved or suspended in a 0.5% tragacanth solution, were orally administrated 60 minutes before administration of the test meal. Gastric emptying was delayed by subcutaneous administration of cholesystokinin 3 μg/kg or morphine 3 mg/kg 5 minutes before the administration of phenol red. The number of animals used was 5 to 10.

[3] = tested on: gastrointestinal motility; experiment: Effect on gastrointestinal motility in conscious dog; type: in vivo, beagle dogs; conditions: 3 and 10 mg/kg intragastric; fed state, conscious dogs
Procedure: Four healthy beagle dogs per group of both sexes weighing 10 to 12 kg were anesthetized with an i.v. injection of pentobarbital sodium (Nembutal, 30 mg/kg b. wt.), and the abdominal cavity was opened under aseptic conditions. Extraluminal force transducers were sutured onto the seromuscular layer of the gastric antrum, 3 cm proximal to the pyloric ring, the duodenum, the jejunum, the […] terminal ileum in a manner to measure circular muscle contraction, following the method of Ito et al., [cf. Gastrointerol. Japan. 12, 275-283 (1977).] For intragastric (i.g.) administration of drugs, a Silastic tube (Fr. size 6.5) was inserted into the lumen of the gastric body, and the tube was fixed onto the adjacent serosa. The lead wires of these transducers and gastric tube were taken out of abdominal cavity and then brought out through a skin incision made between the scapulae. The outer ends of the lead wires were sutured onto the skin adjacent to the skin incision. After the operation, jacket protector was placed on the dog to protect the lead wires and the Silastic tube. The dogs were housed in individual experimental cages and given dog food at 10 a.m., and water was given freely. Test compounds at 3 and 10 mg/kg were suspended in 0.5% tragacanth solution and given i.g. through the indwelling Silastic tube.

[4] = tested on: gastric emptying delayed by cholecystokinin; experiment: Effect on gastric emptying delayed by cholecystokinin; type: in vivo, Male Wistar rats; design: key to Effect on gastric emptying delayed by cholecystokinin: +: slightly to moderately improved; ++: markedly improved; ±: no improvement; conditions: for Effect on gastric emptying delayed by cholecystokinin: cholecystokinin 3 μg/kg s.c.
Procedure: as §1

[5] = tested on: apomorphine-induced vomiting; experiment: Inhibitory effect on apomorphine-induced vomiting; type: in vivo, dogs (Beagle); conditions: 2 h before s.c. apomorphine hydrochloride 0.3 mg/kg, emetic episodes 1 h
Procedure: A group of 3-4 dogs (Beagle, 8-15 kg) was used for examining inhibitory effects of the test compounds on apomorphine-induced vomiting according to the method of Chen and Ensor [cf. J. Pharmacol. Exp. Ther., 98, 245-250 (1950)]. Test compounds, dissolved or suspended in a 0.5% tragacanth solution were orally administered two hours before the subcutaneous administration of apomorphine hydrochloride (0.3 mg/kg). Then, the emetic episodes were counted for one hour. The emetic episodes of the compound-treated group were compared with those of the corresponding control (non-dosed) group, and the percent inhibition was calculated.

gastric emptying = experiment: Gastric emptying enhancing activity; type: in vivo, Male Wistar rats; conditions: 3 mg/kg oral, 60 min before test meal; increase from control
Procedure: The test was carried out according to the method of Scarpignato et al. [cf. Arch. Int. Pharmacodyn., 246, 286-294 (1980)]. Male Wistar rats, weighing 130-150 g, were fasted for 18 hours before experimentation, and 1.5 ml of a test meal (phenol red 0.05% in a 1.5% aqueous methylcellulose solution) was orally given. Fifteen minutes after administration of the meal the stomach was removed and the amount of phenol red remaining in the stomach was measured. The test compounds, dissolved or suspended in a 0.5% tragacanth solution, were orally administered 60 minutes before administration of the test meal. The rate of gastric emptying was calculated according to the amount of phenol red remaining in the stomach, and the activity of the test compounds was expressed in terms of increase in the emptying rate from the control.

Compound | Dopamine D2 receptor antagonistic activity (dopamine D2 receptor) | CNS depressant activity (dopamine D2 receptor; derived from dopamine D2 receptor antagonistic activity) | Gastrointestinal motility improving activity (in words) [1] | LD50 at 168 h (in vivo) [mg/kg] | ID50 (inhibition of exploratory activity) (exploratory activity) [mg/kg] | Effect on gastric emptying delayed by morphine ([2]; 10 mg/kg oral) | Effect on gastric emptying delayed by morphine ([2]; 30 mg/kg oral) | Effect on gastric emptying delayed by morphine ([2]; 100 mg/kg oral) | Gastric emptying delayed by morphine (in words) ([2]; 10, 30 or 100 mg/kg) | Interdigestive migrating like-contractions [3] | Effect on gastric emptying delayed by cholecystokinin ([4]; 10 mg/kg oral) | Effect on gastric emptying delayed by cholecystokinin ([4]; 30 mg/kg oral) | Effect on gastric emptying delayed by cholecystokinin ([4]; 100 mg/kg oral) | Gastric emptying delayed by cholecystokinin (in words) ([4]; compound 2: 30 or 100 mg/kg, 7b and Compound A: 10, 30 or 100 mg/kg) | Inhibition of apomorphine-induced vomiting ([5]; 0.1 mg/kg oral) [%] | Inhibition of apomorphine-induced vomiting ([5]; 1.0 mg/kg oral) [%] | Increase in gastric emptying rate (gastric emptying) [%]
CCN(CC)CCNC(=O)c1cc(Cl)c(N)cc1OC [metoclopramide, 4-amino-5-chloro-N-[2-(diethylamino)ethyl]-2-methoxybenzamide] | dopamine D2 receptor antagonistic activity | possesses CNS depressant activity |  |  |  |  |  |  |  |  |  |  |  |  |  |  | 
CCN1CCCC[C@@H](NC(=O)c2cc3nn[nH]c3cc2OC)C1 [Compound 7b, (R)-N-(1-ethyl-1H-hexahydroazepin-3-yl)-6-methoxy-1H-benzotriazole-5-carboxamide.3/2 fumarate] |  |  | especially excellent gastrointestinal motility improving activity | 945 | > 100 | + | ++ | ++ | significantly improved gastric emptying delayed by cholecystokinin or morphine | caused interdigestive migrating like-contractions in fed state in conscious dogs | + | ++ | ++ | significantly improved gastric emptying delayed by cholecystokinin or morphine | 69 | 100 | 34
